From PubChem BioAssay (NCI)
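Each compound was tested at five concentrations against cells in 96-well plates for 48 hours. GI50 marks 50% less growth. TGI is the concentration that stops growth completely.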

Key:
Assay in all cases: NCI-60 cell line screen, 48 h
UACC-257 melanoma = test system: UACC-257 melanoma
HCT-15 colon = test system: HCT-15 colon
SW-620 colon = test system: SW-620 colon
KM12 colon = test system: KM12 colon
CAKI-1 renal = test system: CAKI-1 renal
NCI-H226 lung = test system: NCI-H226 lung
RXF 393 renal = test system: RXF 393 renal
K-562 leukemia = test system: K-562 leukemia
HOP-92 NSCLC = test system: HOP-92 NSCLC
U251 CNS = test system: U251 CNS

In the case of `COc1ccc(C2C(C#N)=C(N)OC3=C2COc2ccc(F)cc23)cc1OC` (stereo not given), the GI50 (UACC-257 melanoma) is reported as 41.4 µM, the TGI (UACC-257 melanoma) is reported as > 100 µM and the GI50 (HCT-15 colon) is reported as 18.8 µM. The TGI (HCT-15 colon) was 76.5 µM, the GI50 (SW-620 colon) was 44.4 µM and the TGI (SW-620 colon) was > 100 µM. The GI50 (KM12 colon) was 23.5 µM, the TGI (KM12 colon) was 69.2 µM and the GI50 (CAKI-1 renal) was 16.5 µM. It also gave a TGI (CAKI-1 renal) of 47.3 µM, a GI50 (NCI-H226 lung) of 13.9 µM and a TGI (NCI-H226 lung) of 51.1 µM. The GI50 (RXF 393 renal) was 69.3 µM, the TGI (RXF 393 renal) was > 100 µM and the GI50 (K-562 leukemia) was 31.8 µM. For the same molecule, the TGI (K-562 leukemia) was > 100 µM, the GI50 (HOP-92 NSCLC) was 47.6 µM and the TGI (HOP-92 NSCLC) was > 100 µM. For the same molecule, the GI50 (U251 CNS) was 17 µM and the TGI (U251 CNS) was 59.2 µM.

With `OCCCCC#Cc1ccccc1C#Cc1cccc(O)c1` the GI50 (UACC-257 melanoma) was 18.1 µM, the TGI (UACC-257 melanoma) was 33.1 µM and the GI50 (HCT-15 colon) was 13.6 µM. The TGI (HCT-15 colon) was 27 µM, the GI50 (SW-620 colon) was 17.5 µM and the TGI (SW-620 colon) was 33.3 µM. It also gave a GI50 (KM12 colon) of 17.1 µM, a TGI (KM12 colon) of 41.3 µM and a GI50 (CAKI-1 renal) of 16.2 µM. It also gave a TGI (CAKI-1 renal) of 33.6 µM, a GI50 (NCI-H226 lung) of 22 µM and a TGI (NCI-H226 lung) of 47.3 µM. It also gave a GI50 (RXF 393 renal) of 2.3 µM, a TGI (RXF 393 renal) of 13.9 µM and a GI50 (K-562 leukemia) of 19.2 µM. The TGI (K-562 leukemia) was 40.4 µM, the GI50 (HOP-92 NSCLC) was 19.8 µM and the TGI (HOP-92 NSCLC) was 40.7 µM. The GI50 (U251 CNS) was 15 µM and the TGI (U251 CNS) was 31.3 µM.

With `O=C(O)Cc1c(O)ccc2ccccc12` the TGI (UACC-257 melanoma) was > 100 µM, the TGI (HCT-15 colon) was > 100 µM and the TGI (SW-620 colon) was > 100 µM. The TGI (KM12 colon) was > 100 µM, the TGI (CAKI-1 renal) was > 100 µM and the TGI (NCI-H226 lung) was > 100 µM. The TGI (RXF 393 renal) was > 100 µM, the TGI (K-562 leukemia) was > 100 µM and the TGI (HOP-92 NSCLC) was > 100 µM. For the same molecule, the TGI (U251 CNS) was > 100 µM.

`O=C(Nc1ccc(Cl)cc1F)c1cc(Br)ccc1O` showed a GI50 (UACC-257 melanoma) of 0.705 µM, a TGI (UACC-257 melanoma) of 3.29 µM and a GI50 (HCT-15 colon) of 1.06 µM. The TGI (HCT-15 colon) was > 20.8 µM, the GI50 (SW-620 colon) was 1.46 µM and the TGI (SW-620 colon) was > 36.2 µM. The GI50 (KM12 colon) was 2.13 µM, the TGI (KM12 colon) was 5.92 µM and the GI50 (CAKI-1 renal) was 0.505 µM. It also gave a TGI (CAKI-1 renal) of 4.19 µM, a GI50 (NCI-H226 lung) of 1.16 µM and a TGI (NCI-H226 lung) of 4.11 µM. It also gave a GI50 (RXF 393 renal) of 0.799 µM, a TGI (RXF 393 renal) of 3.75 µM and a GI50 (K-562 leukemia) of 0.678 µM. For the same molecule, the TGI (K-562 leukemia) was > 100 µM, the GI50 (HOP-92 NSCLC) was 0.183 µM and the TGI (HOP-92 NSCLC) was 0.67 µM. The GI50 (U251 CNS) was 0.913 µM and the TGI (U251 CNS) was > 52.4 µM.
